Measurements reported in patent publication US10941158B2, “Pyrazole ACC inhibitors and uses thereof” (Gilead Apollo, LLC, priority 2015, dated 2021).
In brackets after ≈: the same amount, converted by molar mass.

Legend:
[1] = tested on: C. parapsilosis ATCC 22019; experiment: Anti-Fungal (Candida) Activity Assay, broth microtiter MIC; assay type: cell-based; conditions: Lodderomyces parapsilosis, ATCC22019; 3 replicates, MIC recorded at 48 h; read-out: MIC C. parapsilosis ATCC 22019
How it was run: (§1)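 In CLSI M27-A3 microtiter plates, yeast from overnight agar culture is inoculated in RPMI 1640–MOPS at a standard-curve density. The MIC is the endpoint scored visually against growth control at 48 h.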

C. krusei ATCC 6258 = experiment: as above; assay type: cell-based; conditions: Pichia kudriavzevii, ATCC6258; 3 replicates, MIC recorded at 48 h; read-out: MIC C. krusei ATCC 6258
How it was run: as §1

C. albicans ATCC 90028 = experiment: as above; assay type: cell-based; conditions: ATCC90028, 3 replicates, MIC recorded at 48 h, read-out: MIC C. albicans ATCC 90028
How it was run: as §1

fungal (fACC2) ACC2 = fungal (fACC2) ACC2 (UniProt Q00955); conditions: read-out: fACC2 IC50; fungal ACC2, ADP-Glo
Sequence of fungal (fACC2) ACC2 (Q00955 whole entry): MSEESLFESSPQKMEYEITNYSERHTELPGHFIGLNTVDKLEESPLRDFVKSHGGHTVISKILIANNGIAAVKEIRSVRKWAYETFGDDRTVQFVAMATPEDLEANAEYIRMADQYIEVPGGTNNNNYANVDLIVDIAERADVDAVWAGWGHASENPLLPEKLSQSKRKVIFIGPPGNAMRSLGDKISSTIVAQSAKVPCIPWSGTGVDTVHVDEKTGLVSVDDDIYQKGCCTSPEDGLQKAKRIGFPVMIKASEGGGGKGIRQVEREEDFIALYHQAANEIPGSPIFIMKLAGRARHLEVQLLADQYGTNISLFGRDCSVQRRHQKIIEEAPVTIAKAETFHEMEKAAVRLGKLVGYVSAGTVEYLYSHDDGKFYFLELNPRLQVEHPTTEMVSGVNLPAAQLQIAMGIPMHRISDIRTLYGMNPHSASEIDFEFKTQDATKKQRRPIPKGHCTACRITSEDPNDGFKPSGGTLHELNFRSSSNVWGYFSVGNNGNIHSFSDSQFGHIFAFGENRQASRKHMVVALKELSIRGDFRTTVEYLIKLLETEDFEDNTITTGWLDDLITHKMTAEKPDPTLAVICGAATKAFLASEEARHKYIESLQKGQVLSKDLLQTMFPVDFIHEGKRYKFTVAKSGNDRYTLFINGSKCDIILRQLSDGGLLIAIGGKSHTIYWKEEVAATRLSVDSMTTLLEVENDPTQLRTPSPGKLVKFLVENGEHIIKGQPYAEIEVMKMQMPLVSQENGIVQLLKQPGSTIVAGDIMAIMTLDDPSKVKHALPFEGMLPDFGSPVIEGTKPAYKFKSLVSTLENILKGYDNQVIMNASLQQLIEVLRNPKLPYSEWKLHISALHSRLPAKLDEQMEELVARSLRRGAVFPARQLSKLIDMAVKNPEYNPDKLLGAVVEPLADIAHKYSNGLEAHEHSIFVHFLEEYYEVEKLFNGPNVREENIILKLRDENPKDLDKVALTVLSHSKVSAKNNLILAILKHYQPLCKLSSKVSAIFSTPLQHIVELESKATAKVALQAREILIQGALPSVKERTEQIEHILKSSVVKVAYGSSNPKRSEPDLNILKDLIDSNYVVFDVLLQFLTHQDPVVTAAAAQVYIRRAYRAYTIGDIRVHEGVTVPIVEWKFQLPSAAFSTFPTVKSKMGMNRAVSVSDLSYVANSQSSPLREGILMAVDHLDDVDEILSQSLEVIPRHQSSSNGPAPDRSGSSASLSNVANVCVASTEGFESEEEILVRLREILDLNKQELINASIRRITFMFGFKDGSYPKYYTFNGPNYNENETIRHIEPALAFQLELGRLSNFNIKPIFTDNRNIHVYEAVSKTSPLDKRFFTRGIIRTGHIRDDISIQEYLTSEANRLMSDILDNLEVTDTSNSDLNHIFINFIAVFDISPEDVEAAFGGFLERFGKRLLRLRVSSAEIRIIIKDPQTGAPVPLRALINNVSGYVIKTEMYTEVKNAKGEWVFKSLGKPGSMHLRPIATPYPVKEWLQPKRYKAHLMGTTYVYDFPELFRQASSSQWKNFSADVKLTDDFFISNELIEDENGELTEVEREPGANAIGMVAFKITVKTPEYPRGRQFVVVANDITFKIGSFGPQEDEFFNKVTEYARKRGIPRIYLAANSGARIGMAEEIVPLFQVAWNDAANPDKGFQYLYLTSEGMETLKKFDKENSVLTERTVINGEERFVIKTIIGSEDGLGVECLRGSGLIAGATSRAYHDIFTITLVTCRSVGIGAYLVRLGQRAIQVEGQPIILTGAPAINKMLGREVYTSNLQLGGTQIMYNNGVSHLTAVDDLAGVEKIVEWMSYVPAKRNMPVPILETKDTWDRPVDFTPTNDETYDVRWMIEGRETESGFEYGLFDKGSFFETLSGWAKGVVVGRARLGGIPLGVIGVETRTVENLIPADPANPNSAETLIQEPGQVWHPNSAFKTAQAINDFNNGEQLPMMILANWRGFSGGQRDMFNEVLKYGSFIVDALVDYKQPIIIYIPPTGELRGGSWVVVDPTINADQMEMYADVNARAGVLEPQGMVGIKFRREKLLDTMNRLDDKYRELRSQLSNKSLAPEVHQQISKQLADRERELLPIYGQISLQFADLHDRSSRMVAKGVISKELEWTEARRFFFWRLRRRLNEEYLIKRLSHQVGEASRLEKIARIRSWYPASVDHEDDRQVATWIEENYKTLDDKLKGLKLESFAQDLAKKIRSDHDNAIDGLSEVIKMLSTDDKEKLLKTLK

human (hACC2) ACC2 = human (hACC2) ACC2 (Homo sapiens, UniProt O00763); experiment: In vitro Acetyl-CoA Carboxylase (ACC) inhibition assay (ADP-Glo), hACC2; assay type: biochemical
Sequence of human (hACC2) ACC2 (O00763 whole entry): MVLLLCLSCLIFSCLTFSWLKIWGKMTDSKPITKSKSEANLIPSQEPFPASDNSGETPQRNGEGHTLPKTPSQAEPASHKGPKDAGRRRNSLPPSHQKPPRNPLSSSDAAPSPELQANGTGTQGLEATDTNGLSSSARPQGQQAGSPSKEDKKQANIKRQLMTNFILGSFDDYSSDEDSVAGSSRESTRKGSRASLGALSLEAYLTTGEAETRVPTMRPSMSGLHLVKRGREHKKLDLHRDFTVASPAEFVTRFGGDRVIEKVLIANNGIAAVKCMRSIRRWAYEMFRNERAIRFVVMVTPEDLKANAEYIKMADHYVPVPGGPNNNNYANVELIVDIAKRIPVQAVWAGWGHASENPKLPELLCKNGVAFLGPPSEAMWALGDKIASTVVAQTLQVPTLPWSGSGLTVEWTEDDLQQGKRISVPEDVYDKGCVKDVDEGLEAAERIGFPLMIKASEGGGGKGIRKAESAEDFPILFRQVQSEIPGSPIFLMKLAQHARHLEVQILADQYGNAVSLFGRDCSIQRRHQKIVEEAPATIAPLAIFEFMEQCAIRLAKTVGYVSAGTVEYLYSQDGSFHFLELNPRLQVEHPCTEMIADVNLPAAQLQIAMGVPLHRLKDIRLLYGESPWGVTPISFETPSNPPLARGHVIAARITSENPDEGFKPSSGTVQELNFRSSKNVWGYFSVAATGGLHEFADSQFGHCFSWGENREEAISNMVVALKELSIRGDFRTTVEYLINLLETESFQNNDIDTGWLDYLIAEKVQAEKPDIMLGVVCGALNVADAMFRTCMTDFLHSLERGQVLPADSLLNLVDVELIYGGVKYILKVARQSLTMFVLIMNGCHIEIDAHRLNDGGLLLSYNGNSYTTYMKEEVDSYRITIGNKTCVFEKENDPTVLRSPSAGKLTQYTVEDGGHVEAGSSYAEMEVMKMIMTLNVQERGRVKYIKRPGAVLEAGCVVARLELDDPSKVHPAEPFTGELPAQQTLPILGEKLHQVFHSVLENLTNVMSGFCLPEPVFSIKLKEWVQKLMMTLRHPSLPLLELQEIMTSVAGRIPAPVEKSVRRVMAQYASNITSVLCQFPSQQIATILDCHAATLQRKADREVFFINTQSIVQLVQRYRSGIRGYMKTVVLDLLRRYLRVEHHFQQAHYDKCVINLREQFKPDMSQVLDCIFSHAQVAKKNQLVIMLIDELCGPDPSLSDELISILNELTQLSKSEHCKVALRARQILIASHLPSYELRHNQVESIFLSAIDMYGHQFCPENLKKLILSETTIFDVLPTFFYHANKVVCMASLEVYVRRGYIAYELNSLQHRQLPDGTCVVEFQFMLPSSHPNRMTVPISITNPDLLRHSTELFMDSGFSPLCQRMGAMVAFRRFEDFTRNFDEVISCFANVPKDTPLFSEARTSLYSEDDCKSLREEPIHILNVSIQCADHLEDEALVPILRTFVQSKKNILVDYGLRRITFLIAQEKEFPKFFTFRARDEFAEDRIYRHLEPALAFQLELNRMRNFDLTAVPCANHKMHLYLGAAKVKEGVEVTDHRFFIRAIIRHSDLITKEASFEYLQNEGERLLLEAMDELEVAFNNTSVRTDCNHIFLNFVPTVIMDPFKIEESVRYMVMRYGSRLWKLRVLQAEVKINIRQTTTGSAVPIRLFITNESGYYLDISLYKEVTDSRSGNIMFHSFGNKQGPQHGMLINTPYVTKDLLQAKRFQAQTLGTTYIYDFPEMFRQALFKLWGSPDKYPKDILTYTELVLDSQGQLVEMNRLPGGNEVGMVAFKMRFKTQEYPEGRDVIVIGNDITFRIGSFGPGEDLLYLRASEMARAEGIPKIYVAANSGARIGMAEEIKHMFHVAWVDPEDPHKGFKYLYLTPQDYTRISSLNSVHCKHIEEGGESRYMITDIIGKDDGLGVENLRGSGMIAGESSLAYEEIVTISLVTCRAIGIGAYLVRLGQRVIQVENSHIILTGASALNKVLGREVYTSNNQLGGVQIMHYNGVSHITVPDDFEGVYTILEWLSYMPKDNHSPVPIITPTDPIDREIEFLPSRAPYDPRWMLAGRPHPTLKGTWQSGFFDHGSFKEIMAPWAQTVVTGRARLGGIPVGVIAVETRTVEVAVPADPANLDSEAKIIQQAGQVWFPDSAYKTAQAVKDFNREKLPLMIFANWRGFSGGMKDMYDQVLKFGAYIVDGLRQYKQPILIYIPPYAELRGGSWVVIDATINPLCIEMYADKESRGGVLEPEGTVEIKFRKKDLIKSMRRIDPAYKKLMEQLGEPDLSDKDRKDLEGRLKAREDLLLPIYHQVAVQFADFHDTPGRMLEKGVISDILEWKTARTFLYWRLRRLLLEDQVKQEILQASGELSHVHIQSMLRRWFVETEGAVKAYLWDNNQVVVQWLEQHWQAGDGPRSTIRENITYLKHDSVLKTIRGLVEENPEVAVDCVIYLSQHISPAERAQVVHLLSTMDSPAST
Experimental: The detailed procedure is as follows. […] 10 μL ADP glo reagent was added. […] 20 μL kinase detection reagent was added.
“NA” stands for “not assayed.”

| SMILES | MIC [1] [µg/mL] | MIC (C. krusei ATCC 6258) [µg/mL] | MIC (C. albicans ATCC 90028) [µg/mL] | IC50 (fungal (fACC2) ACC2) [nM] | IC50 (human (hACC2) ACC2) [nM] |
| --- | --- | --- | --- | --- | --- |
| COCCO[C@@H](Cn1c(=O)n(C(C)C(=O)NC(C)C)c(=O)c2c(C)c(-n3cccn3)sc21)c1cc(F)ccc1OC (stereo partly drawn) [Compound I-55] | 2.1 to 4 (≈ 3.57 to 6.81 µM) | 2.1 to 4 (≈ 3.57 to 6.81 µM) | 2.1 to 4 (≈ 3.57 to 6.81 µM) | 0.6 to 3 | 3 to 10 |
| COCCO[C@@H](Cn1c(=O)n(C(C)C(N)=O)c(=O)c2c(C)c(-n3cccn3)sc21)c1cc(F)ccc1OC (stereo partly drawn) [Compound I-56] | > 4.1 | > 4.1 | > 4.1 | 10 to 40 | > 40 |
| COCCO[C@@H](Cn1c(=O)n(C(C)C(=O)O)c(=O)c2c(C)c(-n3cccn3)sc21)c1cc(F)ccc1OC (stereo partly drawn) [Compound I-57] | > 4.1 | > 4.1 | > 4.1 | 10 to 40 | 10 to 40 |
| COc1ccc(F)cc1[C@H](Cn1c(=O)n(C(C)C(=O)N2CCCC2)c(=O)c2c(C)c(-n3cccn3)sc21)OCCO (stereo partly drawn) [Compound I-58] | > 4.1 | 2.1 to 4 (≈ 3.59 to 6.83 µM) | > 4.1 | 0.6 to 3 | 3 to 10 |
| COc1ccc(F)cc1[C@H](Cn1c(=O)n(C(C)C(=O)NC(C)C)c(=O)c2c(C)c(-n3cccn3)sc21)OCCO (stereo partly drawn) [Compound I-59] | > 4.1 | > 4.1 | > 4.1 | 0.6 to 3 | 3 to 10 |
| COc1ccc(F)cc1[C@H](Cn1c(=O)n(C(C)C(=O)O)c(=O)c2c(C)c(-n3cccn3)sc21)OCCO (stereo partly drawn) [Compound I-60] | > 4.1 | > 4.1 | > 4.1 | 0.6 to 3 | 3 to 10 |
| COc1ccc(F)cc1[C@H](Cn1c(=O)n(C(C)C(N)=O)c(=O)c2c(C)c(-n3cccn3)sc21)OCCO (stereo partly drawn) [Compound I-61] | > 4.1 | > 4.1 | > 4.1 | 0.6 to 3 | 10 to 40 |
| COc1ccc(F)cc1[C@H](Cn1c(=O)n(C(C)C(=O)O)c(=O)c2c(C)c(-n3cccn3)sc21)OCC(C)(C)O (stereo partly drawn) [Compound I-62] | > 4.1 | > 4.1 | > 4.1 | 0.6 to 3 | 3 to 10 |
| COCCOc1ccc(F)cc1[C@H](Cn1c(=O)n(C(C)(C)C(N)=O)c(=O)c2c(C)c(-n3cccn3)sc21)OC(C)C [Compound I-63] | > 4.1 | > 4.1 | > 4.1 | 0.6 to 3 | 3 to 10 |
| COCCOc1ccc(F)cc1[C@H](Cn1c(=O)n(C(C)(C)C(=O)O)c(=O)c2c(C)c(-n3cccn3)sc21)OC(C)C [Compound I-64] | > 4.1 | > 4.1 | > 4.1 | 0.6 to 3 | 3 to 10 |
| COc1ccc(F)cc1[C@H](Cn1c(=O)n(C(C)C(=O)O)c(=O)c2c(C)c(-n3cccn3)sc21)OCC(C)=O (stereo partly drawn) [Compound I-65] | > 4.1 | > 4.1 | > 4.1 | 3 to 10 | 10 to 40 |
| COc1ccc(F)cc1[C@H](Cn1c(=O)n(C(C)C(=O)N2CCCC2)c(=O)c2c(C)c(-n3cccn3)sc21)OCC(C)(C)O (stereo partly drawn) [Compound I-66] | > 4.1 | > 4.1 | > 4.1 | 0.6 to 3 | 10 to 40 |
| COc1ccc(F)cc1[C@H](Cn1c(=O)n(C(C)C(=O)NC(C)C)c(=O)c2c(C)c(-n3cccn3)sc21)OCC(C)(C)O (stereo partly drawn) [Compound I-67] | > 4.1 | > 4.1 | > 4.1 | 0.6 to 3 | 10 to 40 |
| COc1ccc(F)cc1[C@H](Cn1c(=O)n(C(C)C(N)=O)c(=O)c2c(C)c(-n3cccn3)sc21)OCC(C)(C)O (stereo partly drawn) [Compound I-68] | > 4.1 | > 4.1 | > 4.1 | 0.6 to 3 | 10 to 40 |
| COCCCO[C@@H](Cn1c(=O)n(C(C)C(=O)NC(C)C)c(=O)c2c(C)c(-n3cccn3)sc21)c1cc(F)ccc1OC (stereo partly drawn) [Compound I-69] | > 4.1 | > 4.1 | > 4.1 | 0.6 to 3 | 10 to 40 |
